Reference: PMC9851200, “Multiparameter phenotypic screening for endogenous TFEB and TFE3 translocation identifies novel chemical series modulating lysosome function” (Autophagy, 2022)

Columns and labels:
Type in all cases: binding
MTOR = MTOR (Homo sapiens, UniProt P42345); experiment: KINOMEscan MTOR; conditions: NEW KINOMEscan
[1] = target: T1, kinases (KINOMEscan panel) (Homo sapiens, UniProt P42680); conditions: kinase TEC; NEW KINOMEscan
T1 sequence (P42680 1-631): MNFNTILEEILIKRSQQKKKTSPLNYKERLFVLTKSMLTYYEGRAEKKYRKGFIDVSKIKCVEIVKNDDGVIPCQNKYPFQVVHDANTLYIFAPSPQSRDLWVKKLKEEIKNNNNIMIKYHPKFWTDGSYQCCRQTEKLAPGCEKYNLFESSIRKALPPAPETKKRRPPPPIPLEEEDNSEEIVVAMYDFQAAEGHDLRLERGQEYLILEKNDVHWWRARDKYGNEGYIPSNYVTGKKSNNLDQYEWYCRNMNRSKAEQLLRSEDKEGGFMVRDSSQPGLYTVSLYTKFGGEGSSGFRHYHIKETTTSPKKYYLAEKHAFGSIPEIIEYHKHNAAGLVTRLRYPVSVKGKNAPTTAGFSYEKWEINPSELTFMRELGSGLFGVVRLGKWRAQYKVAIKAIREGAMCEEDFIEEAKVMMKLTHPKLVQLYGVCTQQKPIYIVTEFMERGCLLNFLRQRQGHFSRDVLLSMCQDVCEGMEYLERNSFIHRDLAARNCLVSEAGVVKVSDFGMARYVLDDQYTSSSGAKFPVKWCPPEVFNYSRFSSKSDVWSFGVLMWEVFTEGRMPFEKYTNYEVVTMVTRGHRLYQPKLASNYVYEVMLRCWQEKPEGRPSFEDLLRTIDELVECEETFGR

[2] = target: T2, kinases (KINOMEscan panel) (Homo sapiens, UniProt P43403); conditions: NEW KINOMEscan
T2 sequence (P43403 1-619): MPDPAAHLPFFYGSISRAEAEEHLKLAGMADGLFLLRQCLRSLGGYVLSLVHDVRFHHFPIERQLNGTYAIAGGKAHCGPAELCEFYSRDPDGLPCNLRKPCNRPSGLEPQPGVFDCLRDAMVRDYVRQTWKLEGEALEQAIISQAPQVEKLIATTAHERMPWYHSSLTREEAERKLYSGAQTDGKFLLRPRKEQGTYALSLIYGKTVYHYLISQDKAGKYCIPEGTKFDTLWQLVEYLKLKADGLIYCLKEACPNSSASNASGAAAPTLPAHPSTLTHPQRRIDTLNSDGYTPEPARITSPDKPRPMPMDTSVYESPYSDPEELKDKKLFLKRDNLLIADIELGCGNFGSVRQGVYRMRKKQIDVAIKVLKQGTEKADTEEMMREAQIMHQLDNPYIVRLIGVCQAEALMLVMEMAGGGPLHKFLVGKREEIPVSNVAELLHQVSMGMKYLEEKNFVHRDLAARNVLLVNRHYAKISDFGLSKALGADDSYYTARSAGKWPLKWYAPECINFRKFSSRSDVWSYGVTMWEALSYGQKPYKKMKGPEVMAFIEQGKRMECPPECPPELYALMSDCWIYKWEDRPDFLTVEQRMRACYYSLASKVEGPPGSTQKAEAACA

[3] = target: kinases (KINOMEscan panel) (Homo sapiens, UniProt Q08345); conditions: DDR1; NEW KINOMEscan
[4] = target: T3, kinases (KINOMEscan panel) (Homo sapiens, UniProt Q12866); conditions: kinase MERTK; NEW KINOMEscan
T3 sequence (Q12866 21-999): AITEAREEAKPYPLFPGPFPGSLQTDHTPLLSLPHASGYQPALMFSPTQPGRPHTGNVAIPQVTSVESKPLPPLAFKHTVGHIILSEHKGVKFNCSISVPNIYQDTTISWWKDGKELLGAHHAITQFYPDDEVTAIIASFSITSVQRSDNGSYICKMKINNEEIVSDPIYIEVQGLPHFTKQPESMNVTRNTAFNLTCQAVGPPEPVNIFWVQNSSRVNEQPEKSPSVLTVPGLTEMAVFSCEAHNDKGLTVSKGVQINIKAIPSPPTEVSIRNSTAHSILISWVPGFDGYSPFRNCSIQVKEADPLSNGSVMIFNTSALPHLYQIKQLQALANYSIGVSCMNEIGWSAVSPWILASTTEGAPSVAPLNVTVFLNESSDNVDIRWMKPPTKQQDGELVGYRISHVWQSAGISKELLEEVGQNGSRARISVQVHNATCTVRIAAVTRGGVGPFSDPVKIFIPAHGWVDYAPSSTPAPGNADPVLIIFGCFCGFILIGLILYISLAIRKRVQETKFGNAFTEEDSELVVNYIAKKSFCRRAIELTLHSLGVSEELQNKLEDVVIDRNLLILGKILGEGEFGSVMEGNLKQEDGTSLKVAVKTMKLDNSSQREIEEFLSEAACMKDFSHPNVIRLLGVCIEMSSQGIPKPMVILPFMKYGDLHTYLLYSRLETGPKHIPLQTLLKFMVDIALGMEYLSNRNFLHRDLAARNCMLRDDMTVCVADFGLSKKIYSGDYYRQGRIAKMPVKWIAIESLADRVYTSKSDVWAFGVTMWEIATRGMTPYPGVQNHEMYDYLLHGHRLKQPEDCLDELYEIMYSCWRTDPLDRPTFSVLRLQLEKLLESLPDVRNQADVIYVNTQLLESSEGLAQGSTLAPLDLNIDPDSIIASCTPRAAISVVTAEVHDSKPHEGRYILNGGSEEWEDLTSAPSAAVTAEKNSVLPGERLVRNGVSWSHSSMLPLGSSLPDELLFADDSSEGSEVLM

[5] = target: kinases (KINOMEscan panel) (Homo sapiens, UniProt Q9HC98); conditions: kinase NEK6; NEW KINOMEscan
Chain of kinases (KINOMEscan panel) (Homo sapiens, UniProt Q9HC98) (Q9HC98 whole entry): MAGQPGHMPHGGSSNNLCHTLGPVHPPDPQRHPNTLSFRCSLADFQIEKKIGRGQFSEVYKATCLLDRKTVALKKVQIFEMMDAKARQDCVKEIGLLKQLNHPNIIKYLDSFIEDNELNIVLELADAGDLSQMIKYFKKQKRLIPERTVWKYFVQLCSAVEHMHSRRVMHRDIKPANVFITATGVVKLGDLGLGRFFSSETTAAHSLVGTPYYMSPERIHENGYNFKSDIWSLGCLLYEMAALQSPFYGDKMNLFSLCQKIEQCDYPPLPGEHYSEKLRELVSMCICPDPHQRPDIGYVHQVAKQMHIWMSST

Chain of kinases (KINOMEscan panel) (Homo sapiens, UniProt Q08345) (Q08345 19-913): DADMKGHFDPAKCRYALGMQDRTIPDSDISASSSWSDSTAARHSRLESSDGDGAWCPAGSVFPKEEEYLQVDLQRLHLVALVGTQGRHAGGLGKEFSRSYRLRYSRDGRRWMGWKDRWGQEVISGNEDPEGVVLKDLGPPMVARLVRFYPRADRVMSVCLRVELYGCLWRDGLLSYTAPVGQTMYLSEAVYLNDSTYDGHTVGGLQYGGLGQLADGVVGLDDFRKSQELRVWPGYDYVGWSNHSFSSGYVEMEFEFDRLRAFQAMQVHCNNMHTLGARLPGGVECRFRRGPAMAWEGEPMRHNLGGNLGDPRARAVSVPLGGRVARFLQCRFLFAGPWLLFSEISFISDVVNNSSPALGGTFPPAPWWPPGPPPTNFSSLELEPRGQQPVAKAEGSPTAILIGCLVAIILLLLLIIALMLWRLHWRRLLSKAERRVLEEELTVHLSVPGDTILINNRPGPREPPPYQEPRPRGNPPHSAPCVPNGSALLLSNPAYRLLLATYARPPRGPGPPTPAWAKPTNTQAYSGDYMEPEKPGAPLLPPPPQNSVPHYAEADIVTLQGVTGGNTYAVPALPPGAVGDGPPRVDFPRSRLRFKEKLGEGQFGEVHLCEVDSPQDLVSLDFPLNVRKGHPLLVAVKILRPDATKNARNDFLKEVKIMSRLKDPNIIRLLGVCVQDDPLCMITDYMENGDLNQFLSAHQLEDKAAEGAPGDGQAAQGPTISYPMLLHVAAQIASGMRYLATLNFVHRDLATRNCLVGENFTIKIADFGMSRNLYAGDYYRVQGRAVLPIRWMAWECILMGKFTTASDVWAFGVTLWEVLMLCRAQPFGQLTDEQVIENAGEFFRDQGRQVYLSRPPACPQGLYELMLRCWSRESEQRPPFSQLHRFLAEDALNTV

Row | Structure (SMILES) | KINOMEscan MTOR (MTOR) | KINOMEscan TEC [1] | KINOMEscan ZAP70 [2] | KINOMEscan DDR1 [3] | KINOMEscan MERTK [4] | KINOMEscan NEK6 [5]
1 | Cc1cccc(-c2nc(N(C)c3ccc4ncsc4c3)c3ccccc3n2)n1 [NK-161] | 4 | 0 | 20 | 0 | 11 | 6
2 | Cc1cccc(-c2nc(Nc3ccc4nn(C)cc4c3)c3ccccc3n2)n1 [NK167] | 0 | 0 | 14 | 0 | 0 | 0
